# Results from patent US9365558B2 (BRISTOL-MYERS SQUIBB COMPANY, priority 2013, dated 2016).
# Target: Human MGAT-2 (Homo sapiens (Human), UniProt Q3SYC2)
# Assay: MGAT LCMS Assay
# Format: biochemical
# Settings: recombinant MGAT-2 membranes expressed in Sf9 cells; 100 μM 2-oleoylglycerol, 15 μM oleoyl-Coenzyme A; LC/MS of diolein; read-out: h-MGAT LCMS IC50
# Protocol: Assay plates were run through a fully automated robotics system and shaken for 5 seconds every minute for a total 10 minutes. The reactions were then quenched with 120 μL of ice cold methanol containing 1 μg/mL 1,2-distearoyl-rac-glycerol as the internal standard. Plates were shaken for 2 minutes and spun down to remove protein precipitation. After the spin, samples were transferred to LC/MS compatible PCR plates. For LC/MS analysis, a ThermoFisher Surveyor pump, utilizing a Waters Symmetry C8, 50×2.1 mm column, was used for the chromatography of enzyme products. The buffer system consists of 0.1% formic acid in water with a mobile phase consisting 0.1% formic acid in methanol. The shallow gradient is 90-100% mobile phase in 0.2 min with a total run time of 2.3 min. The first 0.5 minutes of each injection was diverted to waste to eliminate the presence of Phosphate buffer in the enzymatic reaction. The column was run at 0.6 mL/min and a temperature of 65° C. Mass spectrometry analysis of the samples was performed on a ThermoFisher Quantum Triple quad utilizing APCI (+) as the mode of ionization. […] The ratio of Diolein to internal standard (Peak Area Ratio) is utilized to calculate IC50 values.
# Human MGAT-2, sequence (Q3SYC2 whole entry): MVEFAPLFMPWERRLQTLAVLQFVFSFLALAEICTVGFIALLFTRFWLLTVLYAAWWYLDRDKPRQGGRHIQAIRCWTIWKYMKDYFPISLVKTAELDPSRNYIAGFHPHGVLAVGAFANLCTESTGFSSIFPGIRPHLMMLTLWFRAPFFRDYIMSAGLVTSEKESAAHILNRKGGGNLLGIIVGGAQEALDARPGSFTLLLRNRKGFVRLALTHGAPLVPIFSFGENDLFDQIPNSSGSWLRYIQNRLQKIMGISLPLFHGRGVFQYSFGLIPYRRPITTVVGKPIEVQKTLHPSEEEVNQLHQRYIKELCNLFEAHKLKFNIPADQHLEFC
row,IC50 [nM],Compound
1,72,O=C1N[C@@](c2ccc(CCCCC(F)(F)F)cc2)(C(F)(F)F)CC(c2ccn(C3CC3)n2)=C1C(=O)NS(=O)(=O)C1CC1 [Example 76]
2,29,O=C1N[C@@](c2ccc(OCCCC(F)(F)F)cc2)(C(F)(F)F)CC(c2ccn(C3CCC3)n2)=C1C(=O)NS(=O)(=O)C1CC1 [Example 77]
3,6,CS(=O)(=O)NC(=O)C1=C(c2ccn(C3CC3)n2)C[C@](c2ccc(OCCCCCC(F)(F)F)cc2)(C(F)(F)F)NC1=O [Example 83]
4,37,O=C1N[C@@](c2ccc(OCCCC(F)(F)F)cc2F)(C(F)(F)F)CC(c2ccn(CC3CCC3)n2)=C1C(=O)NS(=O)(=O)C1CC1 [Example 57]
5,16,Cc1ccc(C2=C(C(=O)NS(C)(=O)=O)C(=O)N[C@@](c3ccc(OCCCCCC(F)(F)F)cc3)(C(F)(F)F)C2)cc1 [Example 9]
6,2,CCCCCCCc1cnc([C@]2(C(F)(F)F)CC(c3ccc(C)cc3)=C(C(=O)NS(=O)(=O)C3CC3)C(=O)N2)s1 [Example 40]
7,89,CCn1ccc(C2=C(C(=O)NS(=O)(=O)C3CC3)C(=O)N[C@@](c3ccc(CCCCC(F)(F)F)cc3F)(C(F)(F)F)C2)n1 [Example 53]
8,353,COc1ccc(C2=C(C(=O)NS(=O)(=O)N(C)C)C(=O)N[C@@](c3ccc(OCCCC(F)(F)F)cc3)(C(F)(F)F)C2)cc1 [Example 35]
9,23,CS(=O)(=O)NC(=O)C1=C(c2ccn(CC3CC3)n2)C[C@](c2ccc(OCCCC(F)(F)F)cc2)(C(F)(F)F)NC1=O [Example 91]
10,6,O=C1N[C@@](c2ccc(OCCCCCC(F)(F)F)cc2)(C(F)(F)F)CC(c2ccc(OC(F)F)cc2)=C1C(=O)NS(=O)(=O)C1CC1 [Example 37]
11,33,CCS(=O)(=O)NC(=O)C1=C(c2ccc(OC(F)F)cc2)C[C@](c2ccc(OCCCCCC(F)(F)F)cc2)(C(F)(F)F)NC1=O [Example 8]
12,20,CC(C)n1ccc(C2=C(C(=O)NS(C)(=O)=O)C(=O)N[C@@](c3ccc(OCCCC(F)(F)F)cc3F)(C(F)(F)F)C2)n1 [Example 43]
13,235,CCCCCCCc1cnc([C@@]2(C(F)(F)F)CC(c3ccc(C)cc3)=C(C(=O)NS(=O)(=O)C3CC3)C(=O)N2)s1 [Example 41]
14,3,O=C1N[C@@](c2ccc(OCCCCCC(F)(F)F)cc2)(C(F)(F)F)CC(c2ccn(CC3CC3)n2)=C1C(=O)NS(=O)(=O)C1CC1 [Example 79]
15,6,Cc1ccc(C2=C(C(=O)NS(C)(=O)=O)C(=O)N[C@@](c3ccc(OCCCC(F)(F)F)cc3)(C(F)(F)F)C2)cc1 [Example 13]
16,16,CS(=O)(=O)NC(=O)C1=C(c2ccn(C3CC3)n2)C[C@](c2ccc(OCCCC(F)(F)F)cc2F)(C(F)(F)F)NC1=O [Example 47]
17,6,O=C1N[C@@](c2ccc(OCCCCCC(F)(F)F)cc2F)(C(F)(F)F)CC(c2ccn(C3CC3)n2)=C1C(=O)NS(=O)(=O)C1CC1 [Example 89]
18,43,CC(C)Cn1ccc(C2=C(C(=O)NS(=O)(=O)C3CC3)C(=O)N[C@@](c3ccc(OCCCCCC(F)(F)F)cc3)(C(F)(F)F)C2)n1 [Example 81]
19,22,Cc1ccc(C2=C(C(=O)NS(=O)(=O)C3CC3)C(=O)N[C@@](C3CCCCC3)(C(F)(F)F)C2)cc1 [Example 98]
20,4,O=C1N[C@@](c2cnn(CCCCCCC(F)(F)F)c2)(C(F)(F)F)CC(c2ccc3c(c2)CCCC3)=C1C(=O)NS(=O)(=O)C1CC1 [Example 94]
21,9,Cc1ccc(C2=C(C(=O)NS(=O)(=O)C3CC3)C(=O)N[C@@](c3ccc(OCCCC(F)(F)F)cc3Cl)(C(F)(F)F)C2)cc1 [Example 69]

row,IC50 [nM],Compound
1,166,CS(=O)(=O)NC(=O)C1=C(c2ccn(C3CC3)n2)C[C@](c2ccc(OCCCCCC(F)(F)F)cc2F)(C(F)(F)F)NC1=O [Example 86]
2,12,Cc1ccc(C2=C(C(=O)NS(=O)(=O)C3CC3)C(=O)N[C@@](c3ccc(OCCCCCC(F)(F)F)cc3)(C(F)(F)F)C2)cc1 [Example 11]
3,5,CCc1ccc(C2=C(C(=O)NS(=O)(=O)C3CC3)C(=O)N[C@@](c3ccc(OCCCCCC(F)(F)F)cc3)(C(F)(F)F)C2)s1 [Example 10]
4,25,Cc1ccc(C2=C(C(=O)NS(=O)(=O)N(C)C)C(=O)N[C@@](c3ccc(OCCCCCC(F)(F)F)cc3)(C(F)(F)F)C2)cc1 [Example 32]
5,13,O=C1N[C@@](c2ccc(OCCCC(F)(F)F)cc2F)(C(F)(F)F)CC(c2ccn(CC3CC3)n2)=C1C(=O)NS(=O)(=O)C1CC1 [Example 56]
6,17,O=C1N[C@@](c2ccc(OCCCC(F)(F)F)cc2)(C(F)(F)F)CC(c2ccn(CC3CCC3)n2)=C1C(=O)NS(=O)(=O)C1CC1 [Example 74]
7,11,Cc1ccc(C2=C(C(=O)NS(=O)(=O)C3CC3)C(=O)N[C@@](C#CCCCCCC(F)(F)F)(C(F)(F)F)C2)cc1 [Example 33]
8,348,Cc1ccc(C2=C(C(=O)NS(=O)(=O)C(C)(C)C)C(=O)N[C@@](c3ccc(OCCCC(F)(F)F)cc3)(C(F)(F)F)C2)cc1 [Example 28]
9,34,C[C@@]1(c2ccc(OCCCC(F)(F)F)cc2)CC(c2ccn(CC3CC3)n2)=C(C(=O)NS(=O)(=O)C2CC2)C(=O)N1 [Example 60]
10,7,CS(=O)(=O)NC(=O)C1=C(c2ccn(C3CCC3)n2)C[C@](c2ccc(OCCCC(F)(F)F)cc2F)(C(F)(F)F)NC1=O [Example 44]
11,4,CS(=O)(=O)NC(=O)C1=C(c2ccc(C3CC3)s2)C[C@](c2ccc(OCCCC(F)(F)F)cc2F)(C(F)(F)F)NC1=O [Example 65]
12,2,CCc1ccc(C2=C(C(=O)NS(=O)(=O)C3CC3)C(=O)N[C@](C)(c3ccc(OCCCC(F)(F)F)cc3)C2)cc1 [Example 82]
13,38,CS(=O)(=O)NC(=O)C1=C(c2ccc(OC(F)F)cc2)C[C@](c2ccc(OCCCCCC(F)(F)F)cc2)(C(F)(F)F)NC1=O [Example 5]
14,20,CCCCCCC#C[C@]1(C(F)(F)F)CC(c2ccc(C)cc2)=C(C(=O)NS(=O)(=O)C2CC2)C(=O)N1 [Example 2]
15,45,Cc1ccc(C2=C(C(=O)NS(N)(=O)=O)C(=O)N[C@@](c3ccc(OCCCC(F)(F)F)cc3)(C(F)(F)F)C2)cc1 [Example 61]
16,9,Cc1ccc(C2=C(C(=O)NS(=O)(=O)C3CC3)C(=O)N[C@@](c3ncc(CCCCCCC(F)(F)F)s3)(C(F)(F)F)C2)cc1 [Example 3]
17,88,O=C1N[C@@](c2cnn(CC/C=C/CCC(F)(F)F)c2)(C(F)(F)F)CC(c2ccc3c(c2)CCCC3)=C1C(=O)NS(=O)(=O)C1CC1 [Example 95]
18,26,Cc1ccc(C2=C(C(=O)NS(C)(=O)=O)C(=O)N[C@@](c3ccc(OCc4ccccc4)cc3)(C(F)(F)F)C2)cc1 [Example 17]
19,4,CC(C)(C)c1ccc(C2=C(C(=O)NS(=O)(=O)C3CC3)C(=O)N[C@@](c3ccc(OCCCCCC(F)(F)F)cc3)(C(F)(F)F)C2)cc1 [Example 20]
20,1,CS(=O)(=O)NC(=O)C1=C(c2ccc(C3CC3)cc2)C[C@](c2ccc(OCCCCCC(F)(F)F)cc2F)(C(F)(F)F)NC1=O [Example 68]
21,4,O=C1N[C@@](c2ccc(OCCCCCC(F)(F)F)cc2)(C(F)(F)F)CC(c2ccc(CC3CC3)cc2)=C1C(=O)NS(=O)(=O)C1CC1 [Example 23]

row,Compound,IC50 [nM]
1,CC(C)n1ccc(C2=C(C(=O)NS(=O)(=O)C3CC3)C(=O)N[C@@](c3ccc(OCCCC(F)(F)F)cc3F)(C(F)(F)F)C2)n1 [Example 42],8
